# According to patent US10071103B2, “Treatments for resistant acne” (VYOME BIOSCIENCES PVT. LTD., priority 2014, dated 2018):
# Entries after “also recorded” stand apart in the source; their conditions may differ. Read-outs that look alike come from different tables or passages of the source.
# How the values were obtained:
# [1] = test system: IL-1β; experiment: P. acnes-induced IL-1β release in THP-1 cells (ELISA); assay type: cell-based; settings: 25 μg/ml, 100% = P. acnes induced cells
# Procedure: (§1) Method: Preparation of Stimulant for Inflammation: P. acnes culture suspension was prepared in PBS and the cell number in the suspension was adjusted to approximately 5×10^8 CFU/ml by measuring the cell density using a Densimat. The bacterial suspension was then heat killed at 80° C. for 30 min and stored at −80° C. until further use.
# (§2) Cells were seeded in a 96-well format (2×10^5 THP-1 cells per well) in media containing 10% FBS. The cells were stimulated to induce inflammatory cytokines using 3 McFarland equivalent heat-killed P. acnes. Cells in control wells were treated with PBS. One hour after induction with P. acnes, test agents were added to the induced cells at appropriate concentrations to be tested (compound 91 at 25 μg/ml). The plates were incubated at 37° C. for 24 hours. After 24 h, the plates were centrifuged to pellet the cells and the supernatants were collected. The cell culture supernatants thus obtained were analyzed for levels of cytokines (IL-1α, IL-1β, IL-6 and IL-8) by ELISA using R&D Systems kits for individual cytokines following the manufacturer's instructions.
# [2] = test system: P. acnes MTCC 1951; assay type: cell-based, Propionibacterium acnes; settings: for MPC/MIC: ratio against P. acnes
# Procedure: 3 to 4 Petri plates containing 48 h P. acnes culture was suspended in sterile Phosphate buffer saline, PBS (pH 7.2) and turbidity was adjusted to optical density of 1 at 600 nm (10^9 cells/ml). 50 ml of this culture suspension was centrifuged at 4000 rpm for 40 min. The supernatant was discarded and pellet resuspended in 250 μl of sterile PBS. 50 μl of these cell suspensions (10^10 cells) was spread over the plates containing various concentrations of antibiotics (around MIC range). Plates were incubated at 37° C. for 48 h and the lowest concentration of the drug that allowed no growth was taken as its MPC.
# [3] = target: T1, E. coli DNA gyrase (Escherichia coli, UniProt P0AES4+P0AES6); experiment: DNA gyrase super-coiling activity assay (Topogen kit, relaxed pHOT1 plasmid); assay type: biochemical; settings: for Super-coiled band (percentage of DNA super-coiling): untreated control 100%; for Inhibition of super-coiling activity of DNA gyrase (in words): 1 μM and 2.5 μM
# T1 construct: purchased Topogen Inc
# Procedure: DNA super-coiling activity was assayed using DNA gyrase assay kit (Topogen Inc.) with relaxed pHOT1 E. coli plasmid DNA according to manufacturer's protocol. The standard reaction mixture (20 μl) contained 35 mM Tris-HCl (pH 7.5), 24 mM KCl, 4 mM MgCl2, 2 mM dithiothreitol, 1.8 mM spermidine, 1 mM ATP, 6.5% glycerol, 0.1 mg/ml bovine serum albumin (BSA), 10 μg/ml relaxed pHOT1 plasmid DNA and 1 U of DNA gyrase. The reaction mixture was incubated at 37° C. for 1 h in presence of selected compounds/fluoroquinolone at different concentrations. The reaction was terminated by addition of ⅕ volume of loading dye (4 μl) followed by proteinase K (50 μg/ml) and again incubated at 37° C. for half an hour. 20 μl chloroform/isoamyl alcohol (24:1) was added to each tube and vortexed briefly. Thereafter, the blue aqueous phase was separated out and analyzed by 1% agarose gel electrophoresis. The gel was stained by ethidium bromide for half an hour and destained with water for 15 mins. The gel was then visualized in a trans-illuminator and photographed.
# [4] = test system: S. aureus MTCC 6908; experiment: MIC by micro broth dilution, laboratory S. aureus strain; assay type: cell-based, Staphylococcus aureus; settings: Staphylococcus aureus, MTCC6908; Table 6; read-out: MIC Susceptible S. aureus (6908) strain
# Procedure: The plates were incubated at 37° C. for 48 h under anaerobic condition for P. acnes and 37° C. for 24 h for S. aureus The plates were read under Bio-Rad plate reader at 595 nm for optical density to generate the dose-response curves. The MIC of the test compound was recorded by addition of Alamar blue dye.
# S. aureus MTCC 6908 were grown in Tryptone Soya Agar (TSA) at 37° C. for 24 hours. […] Plates were incubated at 37° C. for 24 hours. […] (2) Zone of Inhibition (ZOI): S. aureus MTCC 6908 were grown in Tryptone Soya Agar (TSA) at 37° C. for 24 hours. BHA plates are spreaded with 100 μl of 0.5 McFarland standard equal bacterial suspension. Test samples (drugs/formulations) were dissolved in water/solvent based on the solubility. Sterile disc (6 mm) were loaded with 10 μl of test samples (of various concentration of drug), and were placed above the spreaded plates. Plates were incubated at 37 C for 24 h, followed by ZOI measurement. (3) Time Kill Assay: 0.5 McFarland standard equal S. aureus culture was prepared in sterile water. Besifloxacin gels were diluted in Tryptone Soya broth (TSB) to get final concentration of 25 μg/ml. Then 900 μl of S. aureus 0.5 McFarland standard equal culture and 100 μl of diluted Besifloxacin gel was mixed to obtain final Besifloxacin concentration, 2.5 μl g/ml. Total reaction mixture (1 ml) was incubated at 37° C. in a tube rotator. After 2 and 6 h exposure, bacterial suspension was placed on Tryptone soya agar plate and incubated at 37° C. for 24 h.
# Inoculated plates were incubated at 37° C. for 24 hours.
# [5] = test system: IL-1α; experiment: P. acnes-induced IL-1α release in THP-1 cells (ELISA); assay type: cell-based; settings: 25 μg/ml, 100% = P. acnes induced cells
# Procedure: as §1, §2
# [6] = test system: THP-1 cells; experiment: Viability of THP-1 cells under treatment; assay type: cell-based; settings: 25 μg/ml of compound 91
# [7] = test system: P. acnes CCARM 9010; experiment: MIC by micro broth dilution (Alamar blue), clindamycin-resistant/nonresponsive P. acnes; assay type: cell-based, Propionibacterium acnes; settings: for Activity / bacterial killing, dose response curve (in words): clindamycin-nonresponsive CCARM 9010
# T1 sequence (P0AES4 whole entry, one chain of several): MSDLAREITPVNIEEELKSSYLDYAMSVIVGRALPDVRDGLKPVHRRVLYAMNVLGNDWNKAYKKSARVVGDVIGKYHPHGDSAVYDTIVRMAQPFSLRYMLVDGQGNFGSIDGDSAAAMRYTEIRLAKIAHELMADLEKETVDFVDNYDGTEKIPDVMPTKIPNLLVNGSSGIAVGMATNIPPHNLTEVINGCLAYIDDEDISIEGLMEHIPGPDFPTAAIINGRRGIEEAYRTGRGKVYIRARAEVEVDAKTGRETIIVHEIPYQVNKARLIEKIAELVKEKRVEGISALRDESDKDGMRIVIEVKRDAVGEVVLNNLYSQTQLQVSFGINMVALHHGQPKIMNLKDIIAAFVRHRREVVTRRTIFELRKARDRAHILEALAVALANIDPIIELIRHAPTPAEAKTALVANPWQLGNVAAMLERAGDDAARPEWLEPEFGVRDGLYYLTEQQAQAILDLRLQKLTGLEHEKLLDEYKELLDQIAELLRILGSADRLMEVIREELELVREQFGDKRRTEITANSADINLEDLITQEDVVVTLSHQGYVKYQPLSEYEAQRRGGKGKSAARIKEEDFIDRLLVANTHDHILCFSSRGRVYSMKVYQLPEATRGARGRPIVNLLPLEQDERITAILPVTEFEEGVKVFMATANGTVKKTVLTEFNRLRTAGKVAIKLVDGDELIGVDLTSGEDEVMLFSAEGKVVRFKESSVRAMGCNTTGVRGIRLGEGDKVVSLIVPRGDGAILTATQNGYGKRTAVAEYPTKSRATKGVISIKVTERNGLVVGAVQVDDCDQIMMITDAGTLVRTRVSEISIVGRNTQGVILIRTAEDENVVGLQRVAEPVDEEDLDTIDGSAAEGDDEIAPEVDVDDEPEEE
compound,measurement,setting,value
"Cc1ncc([N+](=O)[O-])n1CC(O)CN1CCN(c2cc3c(cc2F)c(=O)c(C(=O)O)c2n3C(C)S2)CC1 (stereo not shown) [Compound 91, 6-Fluoro-7-{4-[2-hydroxy-3-(2-methyl-5-nitro-imidazol-1-yl)-propyl]-piperazin-1-yl}-1-methyl-4-oxo-4H-2-thia-8b-aza-cyclobuta[a]naphthalene-3-carboxylic acid]",Percentage reduction in P. acnes induced IL-1β release,[1],20.49%
same,Percentage reduction in P. acnes induced IL-1β release,[1]; listed as compound 91,20-25%
same,MPC,"[2]; P. acnes, 10^10 cells inoculum",0.3 to 0.6 µg/mL
same,MPC/MIC,[2],1.5-3
same,MPC/MIC,[2]; listed as compound 91,1.5
same,Super-coiled band (percentage of DNA super-coiling),[3]; 0.25 μM,around 54.3%
same,Inhibition of super-coiling activity of DNA gyrase (in words),[3],best gyrase inhibiting activity; also recorded: greater efficacy
same,Inhibition of super-coiling activity of DNA gyrase (in words),[3]; listed as compound 91,able to inhibit the super-coiling activity; also recorded: highly potent; also recorded: better efficacy; also recorded: most potent
same,Super-coiled band (percentage of DNA super-coiling),[3]; 5 μM,about 2%
same,MIC,[4],1.5 µg/mL
same,Percentage reduction in P. acnes induced IL-1α release,[5],27.51%
same,Percentage reduction in P. acnes induced IL-1α release,[5]; listed as compound 91,20-25%
same,Viability of THP-1 cells,[6],90%
same,MIC,"[7]; Cutibacterium acnes, CCARM9010, read-out: MIC Resistant P. acnes (9010) strain",0.1 µg/mL
same,"Activity / bacterial killing, dose response curve (in words)",[7],highly efficacious bacterial killing profile
same,"Activity / bacterial killing, dose response curve (in words)",[7]; listed as compound 91,lower MIC value and faster bacterial killing profile
